Reference: publication PMC8707212, “Immunosuppressive Sesquiterpenoids from the Edible Mushroom Craterellus odoratus” (Journal of Fungi, 2021)

Tests used:
B lymphocyte cells = experiment: LPS-induced B-cell proliferation ([3H]-thymidine uptake); format: cell-based, BALB/c mice; conditions: Mus musculus, spleen cells stimulated with 10 µg/mL LPS
Method: (§1) Female BALB/c mice were sacrificed by cervical dislocation, and their spleens were aseptically removed. After cell debris, mononuclear cell suspensions were prepared, and clumps were removed. Erythrocytes were depleted with ammonium chloride buffer solution. Lymphocytes were washed and resuspended in RPMI 1640 medium supplemented with 10% FBS, penicillin (100 U/mL), and streptomycin ([…]).
As mentioned above, fresh spleen cells were obtained from female BALB/c mice (18–20 g). Similarly, the 5 × 10^5 spleen cells were cultured at the same conditions. The cultures, with or without various concentrations of compounds, were stimulated with 5 µg/mL of concanavalin A (ConA) to induce the T cells’ proliferative response or 10 µg/mL of lipopolysaccharide (LPS) to induce B cells’ proliferative response. Proliferation was assessed in terms of uptake of [^3H]-thymidine during 8 h of pulsing with 25 µL/well of [^3H]-thymidine, then cells will be harvested onto glass fiber filters. A Beta scintillation counter was used to count the incorporated radioactivity. Cells treated without any stimuli were used as a negative control. The immunosuppressive activity was expressed as the concentration of the compound that inhibited T or B cell proliferation to 50% (IC50) of the control value. Both the cytotoxicity and proliferation assessment were repeated twice.

[1] = Cytotoxicity on mouse spleen cells (CCK-8 assay); format: cell-based, BALB/c mice; conditions: female, fresh mouse spleen cells (splenic lymphocytes), BALB/c mouse spleen cells
Method: as §1
We used the Cell Counting Kit-8 (CCK-8) assay to test cytotoxicity. In brief, fresh spleen cells were obtained from female BALB/c mice (18–20 g). Spleen cells (1 × 10^6 cells) were seeded in triplicate in 96-well flat plates and cultured at 37 °C for 48 h, with or without compounds of various concentrations, in a humidified and 5% CO2-containing incubator. A certain amount of CCK-8 was added to each well during the last 8–10 h of culture. At the end of the culture, we use a microplate reader (Bio-Rad 650) to measure the OD value at 450 nm. […] Only the OD value of culture medium is used as background. The cytotoxicity of compounds was expressed as the concentration of the compounds that reduces cell viability to 50% (CC50).

T lymphocyte cells = experiment: ConA-induced T-cell proliferation ([3H]-thymidine uptake); format: cell-based, BALB/c mice; conditions: Mus musculus, spleen cells stimulated with 5 µg/mL ConA, read-out: Con A-Induced T-Cell Proliferation IC50
Method: as §1

Row | Compound | IC50 (B lymphocyte cells) | CC50 at 48 h [1] | melting point | IC50 (T lymphocyte cells)
1 | CC(=CCCC1(C)C2CCC(CO)(C2)C1O)C(=O)O (stereo not shown) [Compound 3, Craterodoratin C] | 12.6 ± 1.14 µM | > 40 µM | 180.7 to 182.4 °C | 
2 | CC(=CC(O)CC12COC3(CO)CCC1CC32)C(=O)O (stereo not shown) [Compound 10, Craterodoratin J] | 19.4 ± 0.48 µM | > 40 µM |  | 
3 | CC(=CC(=O)CC12C(=O)OC3(C)CCC1CC32)C(=O)O (stereo not shown) [Compound 12, Craterodoratin L] | 13.7 ± 0.65 µM | > 40 µM |  | 
4 | CC(=CCCC1(C)C2CCC(CO)C1C2)C(=O)O (stereo not shown) [Compound 13, Craterodoratin M] | 15.4 ± 1.03 µM | > 40 µM |  | 
5 | CC(=CCCC1(C)C2CCC(CO)C1(O)C2)C(=O)O (stereo not shown) [Compound 14, Craterodoratin N] | 13.3 ± 1.29 µM | > 40 µM |  | 
6 | C=C1CCC2(O)CC1C2(C)CCC=C(C)C(=O)O (stereo not shown) [Compound 15, Craterodoratin O] | 17.1 ± 1.14 µM | > 40 µM |  | 
7 | C=C1CCC2CC1C2(COC(C)=O)CC(O)C=C(C)C(=O)O (stereo not shown) [Compound 17, Craterodoratin Q] |  | > 40 µM |  | 31.5 ± 1.79 µM
8 | C=C1C2CN(CC(=O)O)CC3C2C(C(C)C)CCC13C (stereo not shown) [Compound 19, Craterodoratin S] | 22.7 ± 1.67 µM | > 40 µM |  | 
9 | CC(=CC(O)CC12COC3(C)CCC1CC32)C(=O)O (stereo not shown) [Compound 20, massarinolin B] | 0.67 ± 0.004 µM | > 40 µM |  | 0.98 ± 0.01 µM
10 | CC(=CC1CC23C4CCC(C)(OC2O1)C3C4)C(=O)O (stereo not shown) [Compound 23, donacinoic acid A] | 13.2 ± 0.97 µM | > 40 µM |  | 
